{"source": "patent US20150329558A1", "about": "“FUSED HETEROCYCLIC COMPOUNDS AS ION CHANNEL MODULATORS” (Gilead Sciences, Inc., priority 2011, published 2015)", "key": {"hNav1.1": {"biological_target": "T1, hNav1.1 (Homo sapiens, UniProt P35498)", "T1 construct": "expressed in transfected cells; host or cells: HEK293, transient transfection (α1:β1:β2 = 10:1:1)", "test": "Nav1.1 use-dependent block, whole-cell voltage clamp", "type": "cell-based", "conditions": "use-dependent block 10 Hz, read-out: NAv1.1*-CHAN TEST-UDB-10 HZ-"}, "Human Nav1.2": {"biological_target": "T2, Human Nav1.2 (Homo sapiens, UniProt Q99250)", "T2 construct": "expressed in transfected cells", "T2 sequence (Q99250 whole entry)": "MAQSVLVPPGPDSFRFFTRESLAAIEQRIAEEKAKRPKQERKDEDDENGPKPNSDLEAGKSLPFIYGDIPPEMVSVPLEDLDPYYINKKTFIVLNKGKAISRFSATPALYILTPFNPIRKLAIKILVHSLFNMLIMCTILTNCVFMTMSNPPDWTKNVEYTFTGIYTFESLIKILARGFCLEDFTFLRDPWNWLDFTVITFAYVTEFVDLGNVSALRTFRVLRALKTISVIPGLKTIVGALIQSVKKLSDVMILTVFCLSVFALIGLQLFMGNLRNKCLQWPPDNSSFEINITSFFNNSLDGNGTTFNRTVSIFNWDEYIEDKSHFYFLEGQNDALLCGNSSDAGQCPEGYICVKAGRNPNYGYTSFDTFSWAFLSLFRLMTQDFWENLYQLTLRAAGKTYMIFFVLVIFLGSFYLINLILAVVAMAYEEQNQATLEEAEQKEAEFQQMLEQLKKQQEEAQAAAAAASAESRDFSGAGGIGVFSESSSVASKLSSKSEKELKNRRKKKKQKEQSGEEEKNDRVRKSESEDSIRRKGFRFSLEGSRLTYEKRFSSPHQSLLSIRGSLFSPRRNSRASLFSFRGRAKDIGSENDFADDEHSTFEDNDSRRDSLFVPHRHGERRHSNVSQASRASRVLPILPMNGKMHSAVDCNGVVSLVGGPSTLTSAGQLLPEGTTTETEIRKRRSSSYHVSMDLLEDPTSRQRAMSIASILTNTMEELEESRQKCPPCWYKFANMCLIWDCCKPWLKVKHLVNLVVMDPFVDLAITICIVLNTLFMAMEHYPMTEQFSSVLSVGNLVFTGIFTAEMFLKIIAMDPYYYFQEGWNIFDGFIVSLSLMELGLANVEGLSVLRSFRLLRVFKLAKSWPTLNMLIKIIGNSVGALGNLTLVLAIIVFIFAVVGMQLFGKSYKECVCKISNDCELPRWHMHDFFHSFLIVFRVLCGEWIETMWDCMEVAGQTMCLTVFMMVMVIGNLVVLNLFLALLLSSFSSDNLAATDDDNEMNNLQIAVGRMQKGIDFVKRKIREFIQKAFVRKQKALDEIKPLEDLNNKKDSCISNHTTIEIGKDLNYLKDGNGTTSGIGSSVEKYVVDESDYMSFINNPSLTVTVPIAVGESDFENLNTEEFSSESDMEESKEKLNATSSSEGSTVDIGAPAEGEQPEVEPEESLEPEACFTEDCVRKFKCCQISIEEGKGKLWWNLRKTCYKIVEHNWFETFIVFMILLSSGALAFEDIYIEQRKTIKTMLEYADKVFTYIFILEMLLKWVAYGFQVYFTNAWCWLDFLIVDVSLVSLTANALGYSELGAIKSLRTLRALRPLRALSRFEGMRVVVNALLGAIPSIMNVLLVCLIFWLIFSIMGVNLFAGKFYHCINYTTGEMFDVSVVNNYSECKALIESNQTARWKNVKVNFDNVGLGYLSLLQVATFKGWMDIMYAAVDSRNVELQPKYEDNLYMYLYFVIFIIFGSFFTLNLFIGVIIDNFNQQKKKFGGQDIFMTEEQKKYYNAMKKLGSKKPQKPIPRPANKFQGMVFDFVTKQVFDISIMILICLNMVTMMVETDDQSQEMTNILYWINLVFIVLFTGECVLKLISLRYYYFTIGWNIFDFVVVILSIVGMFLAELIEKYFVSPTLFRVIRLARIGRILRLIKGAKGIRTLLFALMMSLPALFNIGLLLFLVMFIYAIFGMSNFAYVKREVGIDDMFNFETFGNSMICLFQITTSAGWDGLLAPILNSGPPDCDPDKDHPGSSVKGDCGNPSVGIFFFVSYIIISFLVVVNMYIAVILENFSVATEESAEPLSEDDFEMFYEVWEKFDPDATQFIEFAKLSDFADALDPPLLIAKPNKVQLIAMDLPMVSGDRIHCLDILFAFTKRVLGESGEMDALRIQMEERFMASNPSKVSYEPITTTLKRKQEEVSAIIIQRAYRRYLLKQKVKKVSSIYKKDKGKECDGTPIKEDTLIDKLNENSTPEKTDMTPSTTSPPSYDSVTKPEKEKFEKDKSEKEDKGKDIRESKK", "test": "Nav1.2 use-dependent block, whole-cell voltage clamp", "type": "cell-based", "conditions": "use-dependent block 10 Hz, read-out: NAv1.2*-CHAN TEST-UDB-10 HZ-", "excerpt": "Wild-type (WT) cDNA stably transfected in Chinese hamster ovary (CHO) cells is used to record INa. Unless otherwise noted, all reagents are purchased from Sigma-Aldrich (St Louis, Mo., U.S.A.).\nWhole-cell voltage-clamp recordings are used to measure the biophysical properties of WT. Briefly, the pipette solution consists of (in mM) 110 CsF, 10 NaF, 20 CsCl, 2 EGTA, 10 HEPES, with a pH of 7.35 and osmolarity of 300 mOsmol/kg. The bath (control) solution contains in (mM): 145 NaCl, 4 KCl, 1.8 CaCl2, 1 MgCl2, 10 dextrose, 10 HEPES, with a pH of 7.35 and osmolarity of 310 mOsmol/kg. Cells are allowed to stabilize for 10 min after establishment of the whole-cell configuration before current is measured. Series resistance is compensated 90% to assure that the command potential is reached within microseconds with a voltage error <2 mV. Leak currents are subtracted by using an online P/4 procedure and all currents are low-pass Bessel filtered at 5 kHz and digitized at 50 kHz.\nTonic block of peak current is measured using a step to −10 mV (20 ms) from a holding potential of −120 mV (0.2 Hz). Use-dependent block of peak current is measured during pulse number 300 of a pulse train (−10 mV, 5 ms, 300 pulses, 10 Hz or 25 Hz) from a holding potential of −120 mV. Two sequential pulse train stimulations are averaged to obtain mean current traces for each recording condition, which are then used for offline subtraction and analysis.\nFor use-dependent studies, cells are stimulated with depolarizing pulse trains (−10 mV, 5 ms, 300 pulses, 10 and 25 Hz) from a holding potential of −120 mV. Currents are then normalized to the peak current recorded in response to the first pulse in each frequency train. For tonic block studies, peak current is evaluated in response to a 20 ms depolarization to −10 mV (0.2 Hz). Data analysis is performed using Clampfit 9.2 (Axon Instruments, Union City, Calif., U.S.A), Excel 2002 (Microsoft, Seattle, Wash., U.S.A.), and OriginPro 7.0 (OriginLab, Northampton, Mass., U.S.A) software. Results are presented as mean±SEM.\nA stock solution of 10 mM compound of Formula I is prepared in 0.1 M HCl or DMSO. A fresh dilution of the compound of Formula I in the bath solution is prepared every experimental day and the pH is readjusted to 7.35 as necessary. The final DMSO concentration was kept at 0.1% in all solutions. Direct application of the perfusion solution to the clamped cell is achieved using the Perfusion Pencil system (Automate, Berkeley, Calif.). Direct cell perfusion is driven by gravity at a flow rate of 350 μL/min using a 250 micron tip. This system sequesters the clamped cell within a perfusion stream and enables complete solution exchange within 1 second. The clamped cell is perfused continuously starting immediately after establishing the whole-cell configuration. Control currents are measured during control solution perfusion.\nSolutions are perfused for three minutes prior to current recordings to allow equilibrium (tonic) drug block. Tonic block of peak currents is measured from this steady-state condition. Three sequential current traces are averaged to obtain a mean current for each recording. The mean current traces are utilized for offline analysis. Use-dependent block of peak current is measured during pulse number 300 of the pulse train, (−10 mV, 5 ms, 300 pulses, 10 Hz) from a holding potential of −120 mV. Two sequential pulse train stimulations are averaged to obtain mean current traces for each recording condition, which are then used for offline subtraction and analysis. Where appropriate, concentration inhibition curves are fit with the Hill equation: I/Imax=1/[1+10̂(log IC50−I)*k], where IC50 is the concentration that produces half inhibition and k is the Hill slope factor."}, "anesthetized rabbits": {"system": "anesthetized rabbits", "test": "Ischemia-induced ST segment elevation in anesthetized rabbits", "type": "in vivo", "conditions": "rabbit; for area under curve (AUC) for the ST segment height reduced (vs. control): 15 min LAD ischemia, iv bolus", "method": "This study was undertaken to determine the anti-ischemic effects of compounds of the present invention in an in vivo rabbit model.\nFemale New Zealand rabbits (3.0-4.0 kg) were purchased from Western Oregon Rabbitry. Animals were housed on a 12-h light and dark cycle and received standard laboratory chow and water. All experiments were performed in accordance with the Guide for the Care and Use of Laboratory Animals published by The National Research Council and with the experimental protocol approved by the Institutional Animal Care Committee of Gilead Sciences, Inc.\nRabbits were anesthetized with ketamine (35 mg/kg) and xylazine (5 mg/kg) intramuscular injection (im). A tracheotomy was performed and the trachea was intubated with an endotracheal tube. The animal was ventilated with room air supplemented with oxygen using a pressure control animal ventilator (Kent Scientific Corp., Torrington, Conn.) at a respiratory rate of 40 strokes/min and peak inspiration pressure of 10 mmH2O, which was adjusted to keep blood gases and pH within the physiological range (iSTAT clinic analyzer, Heska Corp.; Waukesha, Wis.). The left femoral artery was cannulated for the measurement of blood pressure (BP). Blood samples were also withdrawn from femoral artery. The right external jugular vein was cannulated for drug/vehicle administration. Needle electrodes were inserted subcutaneously into the limbs for recording of the surface electrocardiogram (ECG). The heart was exposed via an incision in the 4th intercostal space (4th and/or 5th ribs were cut for a clear surgical vision). The chest was opened and a pericardial cradle was formed using 4 retractors. A coronary artery occluder, comprised of a snare made of 5 cm PE-10 tubing with a 6-0 Prolene polypropylene suture in it, was placed loosely around the left anterior descending artery (LAD) at its origin. Two unipolar electrodes, made with teflon coated silver wire attached to a small patch of filter paper, were attached on the surface of the ischemic and normal regions of the left ventricle to record epicardial electrocardiogram. Reference electrodes were placed in the open incision of the neck. The body temperature of the animal was monitored via a rectal thermometer and maintained at 37-40° C. by adjusting the surface temperature of the surgical table. Regional ischemia (15 min) was induced by ligating the LAD followed by 15 min of reperfusion caused by releasing the ligation. The heart was excised at the end of the experiment and the LAD was re-ligated. The ischemic area was visualized by perfusing the heart with 1% Evans blue in saline and calculated as a percentage of total ventricular weight. Rabbits with ischemic area less than 10% or larger than 25% were excluded from the analysis. […]"}}, "data": [{"compound": "O=c1c2cc(-c3ccc(OC(F)(F)F)cc3)ccc2nnn1Cc1noc(C2CC2)n1", "note": "[II-14, 3-((5-cyclopropyl-1,2,4-oxadiazol-3-yl)methyl)-6-(4-(trifluoromethoxy)phenyl)benzo[d][1,2,3]triazin-4(3H)-one]", "values": [{"measurement": "inhibition at 1 µM", "setting": "hNav1.1", "result": 19.5, "unit": "%"}, {"measurement": "inhibition at 1 µM", "setting": "Human Nav1.2", "result": -0.7, "unit": "%"}, {"measurement": "area under curve (AUC) for the ST segment height reduced (vs. control)", "setting": "anesthetized rabbits; 0.3 μM plasma concentration", "result": 19, "unit": "%"}, {"measurement": "area under curve (AUC) for the ST segment height reduced (vs. control)", "setting": "anesthetized rabbits; 0.7 μM plasma concentration", "result": 75, "unit": "%"}, {"measurement": "effect on blood pressure (BP), heart rate (HR) and ECG intervals prior to the ischemia", "setting": "anesthetized rabbits; at the plasma concentration levels studied", "result": "no significant effect"}, {"measurement": "ischemia-induced ST elevation", "setting": "anesthetized rabbits; iv bolus 0.1, 0.2 and 0.4 mg/kg", "result": "dose-dependently prevented the ischemia-induced ST elevation"}]}]}
